Key:
[1] = tested on: Sinapis alba, Chrysanthemum segetum, Avena sativa, Stellaria media, Alopecurus myosuroides and Lolium multiflorum; assay: Herbicidal action, pre-emergence (greenhouse pot test); type: in vivo; conditions: applied pre-emergence, 0.3 kg and less of active substance per hectare; rated visually after 3 to 4 weeks vs untreated controls
Source text: Seeds or pieces or rhizome of mono- and dicotyledon weed plants were laid out in sandy loam soil in plastic pots and covered with soil. The compounds according to the invention, formulated in the form of wettable powders or emulsion concentrates, were then applied to the surface of the covering soil as an aqueous suspension or emulsion in various dosages, with an amount of water applied, when converted, of 600 to 800 l/ha.
After the treatment, the pots were placed in a greenhouse and kept under good growth conditions for the weeds. The plant damage or emergence damage was rated visually after emergence of the test plants after a test period of 3 to 4 weeks in comparison with untreated controls.

[2] = tested on: Sinapis alba, Stellaria media, Alopecurus myosuroides and Lolium multiflorum, Chrysanthemum segetum and Avena sativa; assay: Herbicidal action, post-emergence (greenhouse pot test); type: in vivo; conditions: applied postemergence in three-leaf stage, 0.3 kg or less of active substance per hectare; rated visually after about 3 to 4 weeks vs untreated controls
Experimental: Seeds or pieces of rhizome of mono- and dicotyledon weeds were laid out in sandy loam soil in plastic pots, covered with soil and grown in a greenhouse under good growth conditions. Three weeks after sowing, the test plants were treated in the three-leaf stage.
The compounds according to the invention, formulated as wettable powders or as emulsion concentrates, were sprayed onto the green parts of plants in various dosages with an amount of water applied of, when converted, 600 to 800 l/ha, and after the test plants had stood in a greenhouse for about 3 to 4 weeks under optimum growth conditions, the action of the preparations was rated visually in comparison with untreated controls. The compositions according to the invention also show a good herbicidal activity against a broad spectrum of economically important graminaceous weeds and broad-leafed weeds when applied post-emergence.

CCC(=O)Nc1ccc(C(=O)N(C)C)c(S(=O)(=O)NC(=O)Nc2nc(OC)cc(OC)n2)c1
melting point: 135 to 140 °C (dec.)

COc1cc(OC)nc(NC(=O)[N-]S(=O)(=O)c2cc(NC=O)ccc2C(=O)N(C)C)n1.[Na+] [1 from Table 2]
herbicidal action, pre-emergence [1]: very good herbicidal action

COc1cc(OC)nc(NC(=O)[N-]S(=O)(=O)c2cc(NC(C)=O)ccc2C(=O)N(C)C)n1.[Na+] [7 from Table 2]
herbicidal action, pre-emergence [1]: very good herbicidal action

COc1cc(OC)nc(NC(=O)NS(=O)(=O)c2cc(NC=O)ccc2C(=O)N(C)C)n1 [8 from Table 1]
herbicidal action, post-emergence [2]: very good herbicidal action | herbicidal action, pre-emergence [1]: very good herbicidal action

COc1cc(OC)nc(NC(=O)NS(=O)(=O)c2cc(NC(C)=O)ccc2C(=O)N(C)C)n1 [15 from Table 1]
herbicidal action, post-emergence [2]: very good herbicidal action | herbicidal action, pre-emergence [1]: very good herbicidal action

COc1cc(OC)nc(NC(=O)[N-]S(=O)(=O)c2cc(NC(=O)C(C)C)ccc2C(=O)N(C)C)n1.[Na+] [16 from Table 2]
herbicidal action, pre-emergence [1]: very good herbicidal action

COc1cc(OC)nc(NC(=O)[N-]S(=O)(=O)c2cc(NC(=O)C(F)(F)F)ccc2C(=O)N(C)C)n1.[Na+] [17 from Table 2]
herbicidal action, pre-emergence [1]: very good herbicidal action

COC(=O)Nc1ccc(C(=O)N(C)C)c(S(=O)(=O)[N-]C(=O)Nc2nc(C)nc(OC)n2)c1.[Na+] [20 from Table 2]
herbicidal action, pre-emergence [1]: very good herbicidal action

COC(=O)Nc1ccc(C(=O)N(C)C)c(S(=O)(=O)[N-]C(=O)Nc2nc(OC)cc(OC)n2)c1.[Na+] [21 from Table 2]
herbicidal action, pre-emergence [1]: very good herbicidal action

CCC(=O)Nc1ccc(C(=O)N(C)C)c(S(=O)(=O)NC(=O)Nc2nc(OC)cc(OC)n2)c1 [22 from Table 1]
herbicidal action, post-emergence [2]: very good herbicidal action | herbicidal action, pre-emergence [1]: very good herbicidal action

COC(=O)Nc1ccc(C(=O)N(C)C)c(S(=O)(=O)[N-]C(=O)Nc2nc(Cl)cc(OC)n2)c1.[Na+] [22 from Table 2]
herbicidal action, pre-emergence [1]: very good herbicidal action

COc1cc(OC)nc(NC(=O)NS(=O)(=O)c2cc(NC(=O)C(C)C)ccc2C(=O)N(C)C)n1 [25 from Table 1]
herbicidal action, post-emergence [2]: very good herbicidal action | herbicidal action, pre-emergence [1]: very good herbicidal action

CCOC(=O)Nc1ccc(C(=O)N(C)C)c(S(=O)(=O)[N-]C(=O)Nc2nc(OC)cc(OC)n2)c1.[Na+] [26 from Table 2]
herbicidal action, pre-emergence [1]: very good herbicidal action

COc1cc(OC)nc(NC(=O)NS(=O)(=O)c2cc(NC(=O)C(C)(C)C)ccc2C(=O)N(C)C)n1 [30 from Table 1]
herbicidal action, post-emergence [2]: very good herbicidal action | herbicidal action, pre-emergence [1]: very good herbicidal action

COc1cc(C)nc(NC(=O)NS(=O)(=O)c2cc(NC(=O)C(F)(F)F)ccc2C(=O)N(C)C)n1 [40 from Table 1]
herbicidal action, post-emergence [2]: very good herbicidal action | herbicidal action, pre-emergence [1]: very good herbicidal action

COc1nc(NC(=O)NS(=O)(=O)c2cc(NC(=O)C(F)(F)F)ccc2C(=O)N(C)C)nc(OC)n1 [44 from Table 1]
herbicidal action, post-emergence [2]: very good herbicidal action | herbicidal action, pre-emergence [1]: very good herbicidal action

COC(=O)Nc1ccc(C(=O)N(C)C)c(S(=O)(=O)NC(=O)Nc2nc(OC)cc(OC)n2)c1 [53 from Table 1]
herbicidal action, post-emergence [2]: very good herbicidal action | herbicidal action, pre-emergence [1]: very good herbicidal action

COC(=O)Nc1ccc(C(=O)N(C)C)c(S(=O)(=O)NC(=O)Nc2nc(Cl)cc(OC)n2)c1 [55 from Table 1]
herbicidal action, post-emergence [2]: very good herbicidal action | herbicidal action, pre-emergence [1]: very good herbicidal action

COC(=O)Nc1ccc(C(=O)N(C)C)c(S(=O)(=O)NC(=O)Nc2nc(C)nc(OC)n2)c1 [58 from Table 1]
herbicidal action, post-emergence [2]: very good herbicidal action | herbicidal action, pre-emergence [1]: very good herbicidal action

CCOC(=O)Nc1ccc(C(=O)N(C)C)c(S(=O)(=O)NC(=O)Nc2nc(OC)cc(OC)n2)c1 [59 from Table 1]
herbicidal action, post-emergence [2]: very good herbicidal action | herbicidal action, pre-emergence [1]: very good herbicidal action

COc1cc(OC)nc(NC(=O)NS(=O)(=O)c2cc(NC(=O)OCCCl)ccc2C(=O)N(C)C)n1 [65 from Table 1]
herbicidal action, post-emergence [2]: very good herbicidal action | herbicidal action, pre-emergence [1]: very good herbicidal action

CCNC(=O)Nc1ccc(C(=O)N(C)C)c(S(=O)(=O)NC(=O)Nc2nc(OC)cc(OC)n2)c1 [72 from Table 1]
herbicidal action, post-emergence [2]: very good herbicidal action | herbicidal action, pre-emergence [1]: very good herbicidal action

COc1cc(OC)nc(NC(=O)NS(=O)(=O)c2cc(NS(C)(=O)=O)ccc2C(=O)N(C)C)n1 [77 from Table 1]
herbicidal action, post-emergence [2]: very good herbicidal action | herbicidal action, pre-emergence [1]: very good herbicidal action

CNS(=O)(=O)Nc1ccc(C(=O)N(C)C)c(S(=O)(=O)NC(=O)Nc2nc(OC)cc(OC)n2)c1 [87 from Table 1]
herbicidal action, post-emergence [2]: very good herbicidal action | herbicidal action, pre-emergence [1]: very good herbicidal action

COc1cc(OC)nc(NC(=O)NS(=O)(=O)c2cc(NC(=O)C3CC3)ccc2C(=O)N(C)C)n1 [115 from Table 1]
herbicidal action, post-emergence [2]: very good herbicidal action | herbicidal action, pre-emergence [1]: very good herbicidal action

CCN(C)C(=O)c1ccc(NC=O)cc1S(=O)(=O)NC(=O)Nc1nc(OC)cc(OC)n1 [116 from Table 1]
herbicidal action, post-emergence [2]: very good herbicidal action | herbicidal action, pre-emergence [1]: very good herbicidal action

COc1cc(OC)nc(NC(=O)NS(=O)(=O)c2cc(NC=O)ccc2C(=O)N(C)C)n1.[Na] [Example 1 from Table 2, N-[(4,6-dimethoxypyrimidin-2-yl)-aminocarbonyl]-2-dimethylaminocarbonyl-5-formylamino-benzenesulfonamide sodium salt]
herbicidal action, post-emergence [2]: very good herbicidal action

COc1cc(OC)nc(NC(=O)[N-]S(=O)(=O)c2cc(NC(C)=O)ccc2C(=O)N(C)C)n1.[Na+] [Example 7 from Table 2]
herbicidal action, post-emergence [2]: very good herbicidal action

CCC(=O)Nc1ccc(C(=O)N(C)C)c(S(=O)(=O)NC(=O)Nc2nc(OC)cc(OC)n2)c1.[Na] [Example 12 from Table 2, N-[(4,6-dimethoxypyrimidin-2-yl)-aminocarbonyl]-2-dimethylaminocarbonyl-5-propionylamino-benzenesulfonamide sodium salt]
melting point: 212 °C (dec.) | herbicidal action, post-emergence [2]: very good herbicidal action

COc1cc(OC)nc(NC(=O)[N-]S(=O)(=O)c2cc(NC(=O)C(C)C)ccc2C(=O)N(C)C)n1.[Na+] [Example 16 from Table 2]
herbicidal action, post-emergence [2]: very good herbicidal action

COc1cc(OC)nc(NC(=O)[N-]S(=O)(=O)c2cc(NC(=O)C(F)(F)F)ccc2C(=O)N(C)C)n1.[Na+] [Example 17 from Table 2]
herbicidal action, post-emergence [2]: very good herbicidal action

COC(=O)Nc1ccc(C(=O)N(C)C)c(S(=O)(=O)[N-]C(=O)Nc2nc(C)nc(OC)n2)c1.[Na+] [Example 20 from Table 2]
herbicidal action, post-emergence [2]: very good herbicidal action

COC(=O)Nc1ccc(C(=O)N(C)C)c(S(=O)(=O)NC(=O)Nc2nc(OC)cc(OC)n2)c1.[Na] [Example 21 from Table 2, N-[(4,6-dimethoxypyrimidin-2-yl)-aminocarbonyl]-2-dimethylaminocarbonyl-5-methoxycarbonylamino-benzenesulfonamide sodium salt]
melting point: 187 to 191 °C (dec.) | herbicidal action, post-emergence [2]: very good herbicidal action

COC(=O)Nc1ccc(C(=O)N(C)C)c(S(=O)(=O)[N-]C(=O)Nc2nc(Cl)cc(OC)n2)c1.[Na+] [Example 22 from Table 2]
herbicidal action, post-emergence [2]: very good herbicidal action

CCOC(=O)Nc1ccc(C(=O)N(C)C)c(S(=O)(=O)[N-]C(=O)Nc2nc(OC)cc(OC)n2)c1.[Na+] [Example 26 from Table 2]
herbicidal action, post-emergence [2]: very good herbicidal action
